Laboratory results reported in publication PMC12705620 (Frontiers in Pharmacology, 2025).
Bridge positions count the residues as written; N and C are the ends. Square brackets hold non-standard residues; d marks the D form. Peptide text beside a SMILES is read from it. I, II: the chains in the order shown. Dap = NC[C@H](N)C(=O)O; Ahx = NCCCCCC(=O)O

How the values were obtained:
[1] = test system: Staphylococcus aureus JAR060131; format: cell-based; settings: JAR060131, 18 h
Experimental: Bactericidal activity was assessed as previously described ([Breij et al., 2018]). Briefly, mid-logarithmic phase bacterial cultures were diluted in RPMI to 1 × 10^7 CFU/mL. For fungicidal assays, fungal cultures were prepared in RPMI supplemented with 1% glucose (Merck) and diluted to 2–5 × 10^5 CFU/mL. For each condition, 10 µL of the suspension was added to 90 µL of peptide-containing RPMI or RPMI supplemented with 50% (v/v) pooled human plasma (hereafter referred to as 50% plasma; final bacterial concentration 1 × 10^6 CFU/mL, final fungal concentration 2–5 × 10^4 CFU/mL. Human plasma from four healthy volunteers (Sanquin, Netherlands) was pooled, and stored at −20 °C until use. Peptides were tested similarly for fungicidal activity, after 18 h of incubation at 37 °C with shaking (120 rpm) under humidified conditions, bacterial and fungal survival was determined by plating 10 µL aliquots onto BA plates. Assays were performed in duplicate in round-bottom polypropylene microtiter plates (Costar) and repeated independently three times. Untreated controls included bacteria exposed to RPMI alone or RPMI with 50% plasma. Bactericidal and fungicidal activity was expressed as the lethal concentration 99.9% (LC99.9), defined as the lowest peptide concentration causing ≥99.9% reduction in numbers of CFU compared to the initial inoculum.

[2] = test system: S. aureus RN4220 (mCherry) in dTHP-1 macrophages; assay: Intracellular bacterial killing in macrophages; format: cell-based, Staphylococcus aureus; settings: 24 h pre-treatment at 1 µM and 2 µM, MOI 2, CFU after lysis, versus no treatment
Experimental: Human monocytes (THP-1; TIB-202; ATCC) were cultured in RPMI 1,640 medium (Gibco) supplemented with 10% FBS. For differentiation into macrophage-like cells (dTHP-1), THP-1 monocytes were seeded in 96-well plates at 3 × 10^4 cells/well (100 µL) in RPMI supplemented with 50 ng/mL phorbol 12-myristate 13-acetate (PMA; Sigma-Aldrich), and incubated for 48 h. The protocol for intracellular killing was adapted from Tang et al. ([Tang et al., 2015]) with modifications. After differentiation, dTHP-1 cells were pre-treated with one or 2 µM peptide solutions in fresh RPMI for 24 h. Subsequently peptides were removed by washing three times with PBS. An mCherry-expressing S. aureus strain, prepared as described in Section 5.2, was used. This strain is efficiently internalized by macrophages ([Cuypers et al., 2024]). Bacteria were added to dTHP-1 cells at a multiplicity of infection (MOI) of 2:1 and incubated for 45 min at 37 °C with 5% CO2 for phagocytosis. Extracellular bacteria were then removed by washing the wells three times with 60 µL PBS, followed by a final wash with 200 µL PBS.dTHP-1 cells were either lysed immediately to quantify the number of intracellular bacteria, after phagocytosis (T = 0 h) or were incubated for 24 h (T = 24 h) in RPMI supplemented with 10 μg/mL gentamicin (Sigma-Aldrich) to inhibit extracellular bacterial growth (in both peptide-treated and control dTHP-1 cells). Internalized bacteria were quantified after lysing the cells with 0.025% Triton X-100 in PBS for 15 min. Lysates were serially diluted (both at 0 h and 24 h) and plated onto BA for CFU enumeration to assess intracellular bacterial survival.

HaCaT keratinocytes = assay: In vitro scratch wound assay; format: cell-based, human; settings: 1 µM peptide (TGF-β 20 ng/mL); for Percentage of wound closure: 60 h (legend: 64 h); for Percentage of wound closure / Rate of cell migration: versus no treatment
Experimental: Cell migration following injury was assessed using an in vitro scratch assay with the IncuCyte wound maker tool (Sartorius). HaCaT keratinocytes were seeded in 96-well ImageLock plates (Sartorius) at 3 × 10^5 cells/well (100 µL) in DMEM supplemented with 10% FBS and incubated at 37 °C, 5% CO2 for 48 h, with medium change at 24 h, until confluence. Uniform scratches were introduced using the wound maker tool according to the manufacturer’s instructions. After wounding, wells were washed twice with 100 µL PBS to remove cell debris. Cells were then treated with 1 µM peptides in serum-free DMEM, to focus specifically on cell migration from the wound edges. The absence of serum minimizes interference with peptide activity. Transforming growth factor-beta (TGF-β; human; 20 ng/mL; Sigma-Aldrich) and 5% dimethyl sulfoxide (DMSO; Sigma-Aldrich) were used as positive and negative controls, respectively. Additional controls included serum-free DMEM (no-treatment control) and 50% (v/v) acetonitrile in Milli-Q water as solvent control. Wound closure was monitored using the IncuCyte S3 live-cell imaging system (Sartorius) with bright-field microscopy. Images were captured every 6 h for up to 60 h. Image analysis was performed using ImageJ software (version 1.53t, NIH, USA) with the “Wound Healing” plugin, as described by Suarez Arnedo et al. ([Suarez-Arnedo et al., 2020]). Quantitative parameters included wound width (µm), percent wound closure, and migration rate (µm/hour).

[3] = test system: primary human venous endothelial cells (HUVECs); assay: In vitro angiogenesis (tube formation) assay; format: cell-based; settings: 4 h; for Number of tubular networks formed: 1 µM peptide, Matrigel, versus untreated control
Experimental: Primary human venous endothelial cells (HUVECs; CSC 2V0) were used to evaluate the in vitro angiogenic potential of peptides using a tube formation assay, adapted from Arnaoutova and Kleinman ([Arnaoutova and Kleinman, 2010]). Cells were cultured in low-serum endothelial cell growth medium 2 (2% v/v; Promo Cell). Briefly, 96-well plates were coated with 50 µL/well of phenol red-free, growth factor-reduced basement membrane matrix (Matrigel; Corning), and incubated at 37 °C for 1 h to allow gelation. […] Then, 100 µL of cell suspension (1.5 × 10^4 cells/well) was added to the Matrigel-coated wells in triplicate and incubated at 37 °C, 5% CO2 for 8 h. Tube formation was monitored using the IncuCyte S3 live-cell imaging system (Sartorius) with bright-field microscopy. Images were captured hourly, and the 4-h time point (corresponding to optimal tube formation) was used for analysis. The number of capillary-like structures was quantified using the “Angiogenesis Analyzer” plugin in ImageJ ([Carpentier et al., 2020]). Each peptide condition was tested in triplicate and repeated three times using different Matrigel batches to account for batch-to-batch variability.

| Compound | LC99.9 [1] [µM] | Macrophage reduction of intracellular S. aureus burden 24 h post-phagocytosis [2] | Percentage of wound closure (HaCaT keratinocytes) | Wound width reduction (HaCaT keratinocytes; serum-free DMEM, versus untreated control) | Rate of cell migration (HaCaT keratinocytes) | Number of tubular networks formed [3] | Concentration at which tube formation peaked ([3]; concentration series 0.5–3 µM) [µM] | Tube formation at 3 µM ([3]; concentration series 0.5–3 µM) |
| --- | --- | --- | --- | --- | --- | --- | --- | --- |
| N=C(N)NCCC[C@H](NC(=O)[C@H](Cc1c[nH]c2ccccc12)NC(=O)[C@H](CCC(N)=O)NC(=O)[C@H](Cc1c[nH]c2ccccc12)NC(=O)[C@H](CCCNC(=N)N)NC(=O)[C@@H](N)CCCNC(=N)N)C(=O)NCCCC[C@H](NC(=O)[C@H](CCCNC(=N)N)NC(=O)[C@H](Cc1c[nH]c2ccccc12)NC(=O)[C@H](CCC(N)=O)NC(=O)[C@H](Cc1c[nH]c2ccccc12)NC(=O)[C@H](CCCNC(=N)N)NC(=O)[C@@H](N)CCCNC(=N)N)C(=O)NCCCCCC(=O)N[C@@H](CSSC[C@H](NC(=O)CCCCCNC(=O)[C@H](CCCCNC(=O)[C@H](CCCNC(=N)N)NC(=O)[C@H](Cc1c[nH]c2ccccc12)NC(=O)[C@H](CCC(N)=O)NC(=O)[C@H](Cc1c[nH]c2ccccc12)NC(=O)[C@H](CCCNC(=N)N)NC(=O)[C@@H](N)CCCNC(=N)N)NC(=O)[C@H](CCCNC(=N)N)NC(=O)[C@H](Cc1c[nH]c2ccccc12)NC(=O)[C@H](CCC(N)=O)NC(=O)[C@H](Cc1c[nH]c2ccccc12)NC(=O)[C@H](CCCNC(=N)N)NC(=O)[C@@H](N)CCCNC(=N)N)C(N)=O)C(N)=O [LBT] (I: H-RRWQWRK[Ahx]C-NH2 / II: H-RRWQWRK[Ahx]C-NH2 / III: H-RRWQWR / IV: H-RRWQWR; amide I:7-III:C, II:7-IV:C; disulfide I:9-II:9; N-terminus and C-terminus assumed) | 0.47 | significantly enhanced | significant wound closure | significantly reduced wound width | highest migration (p < 0.05) | enhanced tube formation | – | – |
| N=C(N)NCCC[C@H](NC(=O)[C@H](Cc1c[nH]c2ccccc12)NC(=O)[C@H](CCC(N)=O)NC(=O)[C@H](Cc1c[nH]c2ccccc12)NC(=O)[C@H](CCCNC(=N)N)NC(=O)[C@@H](N)CCCNC(=N)N)C(=O)NC[C@H](NC(=O)[C@H](CCCNC(=N)N)NC(=O)[C@H](Cc1c[nH]c2ccccc12)NC(=O)[C@H](CCC(N)=O)NC(=O)[C@H](Cc1c[nH]c2ccccc12)NC(=O)[C@H](CCCNC(=N)N)NC(=O)[C@@H](N)CCCNC(=N)N)C(=O)NCCCCCC(=O)N[C@@H](CSSC[C@H](NC(=O)CCCCCNC(=O)[C@H](CNC(=O)[C@H](CCCNC(=N)N)NC(=O)[C@H](Cc1c[nH]c2ccccc12)NC(=O)[C@H](CCC(N)=O)NC(=O)[C@H](Cc1c[nH]c2ccccc12)NC(=O)[C@H](CCCNC(=N)N)NC(=O)[C@@H](N)CCCNC(=N)N)NC(=O)[C@H](CCCNC(=N)N)NC(=O)[C@H](Cc1c[nH]c2ccccc12)NC(=O)[C@H](CCC(N)=O)NC(=O)[C@H](Cc1c[nH]c2ccccc12)NC(=O)[C@H](CCCNC(=N)N)NC(=O)[C@@H](N)CCCNC(=N)N)C(N)=O)C(N)=O [LBT-1] (I: H-RRWQWR[Dap][Ahx]C-NH2 / II: H-RRWQWR[Dap][Ahx]C-NH2 / III: H-RRWQWR / IV: H-RRWQWR; amide I:7-III:C, II:7-IV:C; disulfide I:9-II:9; N-terminus and C-terminus assumed) | 0.47 | significantly enhanced | significant wound closure | – | ns | significantly increasing the number of networks | 2 | declined |
